Experimental findings from US7829589B2, “Sulfonamide compounds and uses thereof” (Elixir Pharmaceuticals, Inc., priority 2005, dated 2010) are described below.

Usually Ki stands for a measure of affinity in units of concentration, obtained from inhibition or displacement. Lower therefore signals a stronger hold on the target.

GHS-R, sequence (Q92847 whole entry, species assumed): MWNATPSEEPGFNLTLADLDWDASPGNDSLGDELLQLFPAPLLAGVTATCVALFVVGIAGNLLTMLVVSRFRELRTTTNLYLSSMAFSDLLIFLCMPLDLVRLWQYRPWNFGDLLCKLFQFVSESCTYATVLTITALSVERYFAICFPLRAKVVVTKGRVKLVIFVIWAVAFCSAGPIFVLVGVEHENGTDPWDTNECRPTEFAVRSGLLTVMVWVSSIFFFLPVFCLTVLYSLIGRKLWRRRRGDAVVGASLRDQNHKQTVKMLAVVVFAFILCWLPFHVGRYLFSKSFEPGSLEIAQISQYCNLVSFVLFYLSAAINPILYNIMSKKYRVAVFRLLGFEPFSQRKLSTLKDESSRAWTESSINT

The experiment deals with GHS-R (Homo sapiens, UniProt Q92847). Nature of the experiment: GHS-R antagonist activity (Ki) in a cell based assay. The procedure:
Cell-Based Activity Assays. For example, the ability of the compound to modulate accumulation of a second messenger signaling component downstream of GHS-R can be evaluated. For example, inositol phosphates (IP), as a result of Gq signaling in a mammalian cell, e.g., a Cos-7 cells. Other tissue culture cells, Xenopus oocytes, and primary cells can also be used.
Phosphatidylinositol turnover assay. One day after transfection COS-7 cells are incubated for 24 hours with 5 μCi of [^3H]-myo-inositol in 1 ml medium supplemented with 10% fetal calf serum, 2 mM glutamine and 0.01 mg/ml gentamicin per well. Cells are then washed twice in buffer, 20 mM HEPES, pH 7.4, supplemented with 140 mM NaCl, 5 mM KCl, 1 mM MgSO4, 1 mM CaCl2, 10 mM glucose, 0.05% (w/v) bovine serum; and incubated in 0.5 ml buffer supplemented with 10 mM LiCl at 37° C. for 30 min. For some assays, it is also useful to incubate the cells with adenosine deaminase ADA (200 U/mg, Boehringer Mannheim, Germany) for 30 min in a concentration of 1 U/ml.
After incubation with the compound of interest for 45 min at 37° C., cells are extracted with 10% ice-cold perchloric acid and placed on ice for 30 min. The resulting supernatants are neutralized with KOH in HEPES buffer, and [^3H]-inositol phosphate is purified on Bio-Rad AG 1-X8 anion exchange resin as described. Assays can be run in duplicate, triplicate, etc. […]
Turning to `CCN(CC)CCCS(=O)(=O)N[C@H](CCc1ccccc1)c1nc(-c2ccc(C(C)(C)C)cc2)n[nH]1` [Compound 42, 3-Diethylamino-propane-1-sulfonic acid {(R)-1-[5-(4-tert-butyl-phenyl)-2H-[1,2,4]triazol-3-yl]-3-phenyl-propyl}-amide], the Ki was no less than 1000 nM.
Take `CCN(CC)CCS(=O)(=O)N[C@H](CCc1ccccc1)c1nc(-c2cccnc2)no1` [Compound 43, 2-Diethylamino-ethanesulfonic acid [(R)-3-phenyl-1-(3-pyridin-3-yl-[1,2,4]oxadiazol-5-yl)-propyl]-amide]: the Ki lay in the range of 100 to 500 nM.
For `CCN(CC)CCCS(=O)(=O)N[C@H](CCc1ccccc1)c1nc(-c2ccc3ncsc3c2)n[nH]1` [Compound 44, 3-Diethylamino-propane-1-sulfonic acid [(R)-1-(5-benzothiazol-6-yl-2H-[1,2,4]triazol-3-yl)-3-phenyl-propyl]-amide], the inhibition constant (Ki) was less than 100 nM.
`CCN(CC)CCCS(=O)(=O)N[C@H](COCc1ccccc1)c1nc(-c2cccnc2)no1` [Compound 45, 3-Diethylamino-propane-1-sulfonic acid [(R)-2-benzyloxy-1-(3-pyridin-3-yl-[1,2,4]oxadiazol-5-yl)-ethyl]-amide] gave a Ki of no less than 1000 nM.
As to `CCN(CC)CCS(=O)(=O)N[C@H](CCc1ccccc1)c1nc(-c2c(OC)cccc2OC)no1` [Compound 46, 2-Diethylamino-ethanesulfonic acid {(R)-1-[3-(2,6-dimethoxy-phenyl)-[1,2,4]oxadiazol-5-yl]-3-phenyl-propyl}-amide], the Ki is 100 to 500 nM.
In turn, `CCN(CC)CCCS(=O)(=O)N[C@H](CCc1ccccc1)c1nc(-c2ccc3c(c2)OCCO3)n[nH]1` [Compound 47, 3-Diethylamino-propane-1-sulfonic acid {(R)-1-[5-(2,3-dihydro-benzo[1,4]dioxin-6-yl)-2H-[1,2,4]triazol-3-yl]-3-phenyl-propyl}-amide] registered an inhibition constant Ki of less than 100 nM.
In the case of `CCN(CC)CCCS(=O)(=O)N[C@H](CCc1ccccc1)c1nc(-c2ccccc2Cl)no1` [Compound 48, 3-Diethylamino-propane-1-sulfonic acid {(R)-1-[3-(2-chloro-phenyl)-[1,2,4]oxadiazol-5-yl]-3-phenyl-propyl}-amide], the inhibitory constant (Ki) is 100 to 500 nM.
Compound `CCN(CC)CCS(=O)(=O)N[C@H](COCc1ccccc1)c1nc(-c2ccccc2OC)no1` [Compound 49, 2-Diethylamino-ethanesulfonic acid {(R)-2-benzyloxy-1-[3-(2-methoxy-phenyl)-[1,2,4]oxadiazol-5-yl]-ethyl}-amide] displayed a Ki of no less than 1000 nM.
`CCN(CC)CCCS(=O)(=O)N[C@H](CCc1ccccc1)c1nc(-c2cccc(C#N)c2)n[nH]1` [Compound 50, 3-Diethylamino-propane-1-sulfonic acid {(R)-1-[5-(3-cyano-phenyl)-2H-[1,2,4]triazol-3-yl]-3-phenyl-propyl}-amide] yielded a Ki of less than 100 nM.
Compound `CCN(CC)CCCS(=O)(=O)N[C@H](COCc1ccccc1)c1nc(-c2ccncc2)no1` [Compound 51, 3-Diethylamino-propane-1-sulfonic acid [(R)-2-benzyloxy-1-(3-pyridin-4-yl-[1,2,4]oxadiazol-5-yl)-ethyl]-amide] yielded a Ki of no less than 1000 nM.
In turn, `CCN(CC)CCCS(=O)(=O)N[C@H](CCc1ccccc1)c1nc(-c2c(C)cccc2C)no1` [Compound 52, 3-Diethylamino-propane-1-sulfonic acid {(R)-1-[3-(2,6-dimethyl-phenyl)-[1,2,4]oxadiazol-5-yl]-3-phenyl-propyl}-amide] had a Ki of 100 to 500 nM.
As for `CCN(CC)CCCS(=O)(=O)N[C@H](CCc1ccccc1)c1nc(-c2cccc(Br)c2)n[nH]1` [Compound 53, 3-Diethylamino-propane-1-sulfonic acid {(R)-1-[5-(3-bromo-phenyl)-2H-[1,2,4]triazol-3-yl]-3-phenyl-propyl}-amide], the inhibitory constant (Ki) is less than 100 nM.
With `CCN(CC)CCS(=O)(=O)N[C@H](CCc1ccccc1)c1nc(-c2cccnc2Cl)no1` [Compound 54, 2-Diethylamino-ethanesulfonic acid {(R)-1-[3-(2-chloro-pyridin-3-yl)-[1,2,4]oxadiazol-5-yl]-3-phenyl-propyl}-amide] the figure was 100 to 500 nM; with `CCN(CC)CCCS(=O)(=O)N[C@H](CCc1ccccc1)c1nc(Cc2ccc3c(c2)OCO3)no1` [Compound 55, 3-Diethylamino-propane-1-sulfonic acid [(R)-1-(3-benzo[1,3]dioxol-5-ylmethyl-[1,2,4]oxadiazol-5-yl)-3-phenyl-propyl]-amide], less than 100 nM.
With `CCN(CC)CCCS(=O)(=O)N[C@H](CCc1ccccc1)c1nc(Cc2ccc(F)c(F)c2)n[nH]1` [Compound 56, 3-Diethylamino-propane-1-sulfonic acid {(R)-1-[5-(3,4-difluoro-benzyl)-2H-[1,2,4]triazol-3-yl]-3-phenyl-propyl}-amide] the figure was 100 to 500 nM; with `CCN(CC)CCCS(=O)(=O)N[C@H](CCc1ccccc1)c1nc(-c2ccc(Cl)cc2Cl)n[nH]1` [Compound 58, 3-Diethylamino-propane-1-sulfonic acid {(R)-1-[5-(2,4-dichloro-phenyl)-2H-[1,2,4]triazol-3-yl]-3-phenyl-propyl}-amide], less than 100 nM.
`CCN(CC)CCCS(=O)(=O)N[C@H](CCc1ccccc1)c1nc(-c2ccc(Br)cc2)no1` [Compound 59, 3-Diethylamino-propane-1-sulfonic acid {(R)-1-[3-(4-bromo-phenyl)-[1,2,4]oxadiazol-5-yl]-3-phenyl-propyl}-amide] returned a Ki of less than 100 nM.
The compound `CCN(CC)CCCS(=O)(=O)N[C@H](CCc1ccccc1)c1nc(CCOC)no1` [Compound 60, 3-Diethylamino-propane-1-sulfonic acid {(R)-1-[3-(2-methoxy-ethyl)-[1,2,4]oxadiazol-5-yl]-3-phenyl-propyl}-amide] returned an inhibitory constant (Ki) of 500 to 1000 nM.
With `CCN(CC)CCCS(=O)(=O)N[C@H](CCc1ccccc1)c1nc(-c2cccc(C)c2)n[nH]1` [Compound 61, 3-Diethylamino-propane-1-sulfonic acid [(R)-3-phenyl-1-(5-m-tolyl-2H-[1,2,4]triazol-3-yl)-propyl]-amide] the figure was less than 100 nM; with `CCN(CC)CCCS(=O)(=O)N[C@H](CCc1ccccc1)c1nc(Cc2cccc(F)c2)no1` [Compound 62, 3-Diethylamino-propane-1-sulfonic acid {(R)-1-[3-(3-fluoro-benzyl)-[1,2,4]oxadiazol-5-yl]-3-phenyl-propyl}-amide], less than 100 nM; with `CCN(CC)CCCS(=O)(=O)N[C@H](CCc1ccccc1)c1nc(-c2cc(F)ccc2F)n[nH]1` [Compound 63, 3-Diethylamino-propane-1-sulfonic acid {(R)-1-[5-(2,5-difluoro-phenyl)-2H-[1,2,4]triazol-3-yl]-3-phenyl-propyl}-amide], 100 to 500 nM.
For `CCN(CC)CCCS(=O)(=O)N[C@H](CCc1ccccc1)c1nc(-c2cccc(Br)c2)no1` [Compound 64, 3-Diethylamino-propane-1-sulfonic acid {(R)-1-[3-(3-bromo-phenyl)-[1,2,4]oxadiazol-5-yl]-3-phenyl-propyl}-amide], the inhibition constant Ki is less than 100 nM.
`CCN(CC)CCCS(=O)(=O)N[C@H](CCc1ccccc1)c1nc(-c2ccc([N+](=O)[O-])cc2)n[nH]1` [Compound 65, 3-Diethylamino-propane-1-sulfonic acid {(R)-1-[5-(4-nitro-phenyl)-2H-[1,2,4]triazol-3-yl]-3-phenyl-propyl}-amide]: the inhibition constant (Ki) is less than 100 nM.
Compound `CCN(CC)CCCS(=O)(=O)N[C@H](CCc1ccccc1)c1nc(-c2ccc(F)cc2)no1` [Compound 66, 3-Diethylamino-propane-1-sulfonic acid {(R)-1-[3-(4-fluoro-phenyl)-[1,2,4]oxadiazol-5-yl]-3-phenyl-propyl}-amide] showed a Ki of less than 100 nM.
Turning to `CCN(CC)CCCS(=O)(=O)N[C@H](CCc1ccccc1)c1nc(-c2ccc(Br)cc2C)no1` [Compound 67, 3-Diethylamino-propane-1-sulfonic acid {(R)-1-[3-(4-bromo-2-methyl-phenyl)-[1,2,4]oxadiazol-5-yl]-3-phenyl-propyl}-amide], the Ki was 100 to 500 nM.
Next, `CCN(CC)CCCS(=O)(=O)N[C@H](CCc1ccccc1)c1nc(Cc2ccccc2C)no1` [Compound 68, 3-Diethylamino-propane-1-sulfonic acid {(R)-1-[3-(2-methyl-benzyl)-[1,2,4]oxadiazol-5-yl]-3-phenyl-propyl}-amide]: less than 100 nM; `CCN(CC)CCCS(=O)(=O)N[C@H](CCc1ccccc1)c1nc(-c2ccc(OC)cc2)no1` [Compound 69, 3-Diethylamino-propane-1-sulfonic acid {(R)-1-[3-(4-methoxy-phenyl)-[1,2,4]oxadiazol-5-yl]-3-phenyl-propyl}-amide]: less than 100 nM.
For `CCN(CC)CCCS(=O)(=O)N[C@H](CCc1ccccc1)c1nc(-c2cccc(Cl)c2)n[nH]1` [Compound 70, 3-Diethylamino-propane-1-sulfonic acid {(R)-1-[5-(3-chloro-phenyl)-2H-[1,2,4]triazol-3-yl]-3-phenyl-propyl}-amide], the Ki is less than 100 nM.
In turn, `CCN(CC)CCCS(=O)(=O)N[C@H](CCc1ccccc1)c1nc(-c2ccc(C)cc2)no1` [Compound 71, 3-Diethylamino-propane-1-sulfonic acid [(R)-3-phenyl-1-(3-p-tolyl-[1,2,4]oxadiazol-5-yl)-propyl]-amide] yielded a Ki of less than 100 nM.
